Molecules are shown by their SMILES. pKi: −log10 of the molar value.

The target in this assay is T1, purified human ADE2 (Homo sapiens, UniProt P22234).
T1 sequence (P22234 1-425): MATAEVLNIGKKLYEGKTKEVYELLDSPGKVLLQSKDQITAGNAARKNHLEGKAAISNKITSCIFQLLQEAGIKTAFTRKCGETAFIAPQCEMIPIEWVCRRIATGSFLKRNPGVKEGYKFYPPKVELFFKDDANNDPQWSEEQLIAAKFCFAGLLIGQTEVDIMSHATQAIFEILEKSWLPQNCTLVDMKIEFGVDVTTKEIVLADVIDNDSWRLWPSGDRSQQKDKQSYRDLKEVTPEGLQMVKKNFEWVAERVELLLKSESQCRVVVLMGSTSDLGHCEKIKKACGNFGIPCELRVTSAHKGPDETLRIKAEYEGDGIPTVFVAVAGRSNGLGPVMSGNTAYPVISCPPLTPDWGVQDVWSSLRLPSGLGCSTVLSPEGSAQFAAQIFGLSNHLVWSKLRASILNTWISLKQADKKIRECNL
Description: Assay of purified ADE2 (apparent Ki). Type of assay: biochemical. Particulars: apparent Ki for ADE2, three separate experiments, read-out: Ki^-1. The method, then:
All assays were performed against purified human ADE2. Results shown are from three separate experiments. Compounds that eluted HSP90 selectively had no effect of ADE2 activity in vitro at µM concentrations. […] Table 2. Determination of apparent Ki for ADE2 against GA structural analogs

As for `CO[C@H]1/C=C\C=C(/C)C(=O)NC2=CC(=O)C(NCCN(C)C)=C(C[C@@H](C)C[C@H](OC)[C@H](O)[C@@H](C)/C=C(\C)[C@@H]1OC(N)=O)C2=O` [Inhibitor 707545], the pKi (as a rule, the negative decadic logarithm of the Ki, by convention in mol/L) was 4.20.
